Experimental data taken from US20150352026A1, “COMPOSITION FOR INCREASING OF THE EFFECTIVENESS OF UV-B THERAPY, PROCESS FOR THE PREPARATION THEREOF, AND ITS USE” (GLOBALDERM KOZMETOLÓGIAI KORLÁTOLT FELELÖSSÉGÜ TÁRSASÁG, priority 2013, published 2015).

Experiment: Optical transmittance spectrum (Helios spectrophotometer, 200-600 nm)
Type: physicochemical
Details: sharp decrease around 300 nm, below this value
Experimental: Furthermore, a sharp decrease of transmittance was detectable around 300 nm wavelength and it fell to zero below this value.
Compositions suitable for therapeutic purposes were selected by the measurement of optical transmittance. Measurements were performed using a Helios a spectrophotometer in the wavelength range of 200-600 nm. FIGS. […] and 2 show optical transmittance spectra of Macrogol 400 and the spray formulation of the composition, respectively. FIG. 3 illustrates the optical transmittance spectrum of the gel formulation of the composition.

transmittance around and below 300 nm wavelength: more pronounced
SMILES: O=C(O)c1cccnc1 [nicotinic acid]
